The subject of data set [1] is P. berghei liver stage (PbLuc). Briefly: P. berghei luciferase liver stage (PbLuc) assay in HepG2-A16-CD81 hepatocytes. To be noted: Plasmodium berghei; for IC50: HepG2-A16-CD81, 12pt dose response, read-out: PbLuc 12pt dose response: IC50; for Emax: HepG2-A16-CD81, 48 h, 12pt dose response, maximum inhibition. The data set is classed as cell-based, Plasmodium berghei.

Data set [2] deals with recombinant firefly luciferase (Photinus pyralis, UniProt P08659). As to the kind of experiment: biochemical. To be noted: dose response; for Emax: maximum inhibition, read-out: rLuc inhibition dose response: Maximum inhibition (%); for IC50: read-out: rLuc inhibition dose response: IC50.
recombinant firefly luciferase, sequence (P08659 whole entry): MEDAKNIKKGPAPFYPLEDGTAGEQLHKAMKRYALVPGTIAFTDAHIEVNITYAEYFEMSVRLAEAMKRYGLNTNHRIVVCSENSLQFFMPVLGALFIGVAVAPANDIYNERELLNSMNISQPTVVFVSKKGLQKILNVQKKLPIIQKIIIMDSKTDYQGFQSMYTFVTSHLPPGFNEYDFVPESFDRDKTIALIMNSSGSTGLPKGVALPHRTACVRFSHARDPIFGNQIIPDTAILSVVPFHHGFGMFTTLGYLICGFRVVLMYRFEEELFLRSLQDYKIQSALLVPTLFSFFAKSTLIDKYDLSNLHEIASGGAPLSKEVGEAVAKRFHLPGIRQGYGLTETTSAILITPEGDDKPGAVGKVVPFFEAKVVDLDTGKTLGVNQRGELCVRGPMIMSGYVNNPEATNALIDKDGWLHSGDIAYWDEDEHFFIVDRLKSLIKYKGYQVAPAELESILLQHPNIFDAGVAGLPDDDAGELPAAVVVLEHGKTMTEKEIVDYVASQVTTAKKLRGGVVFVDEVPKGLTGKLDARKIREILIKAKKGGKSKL
Data set [3] can be described thus: HepG2 cytotoxicity screening (CellTiter-Glo). To be noted: human, uninfected HepG2-A16-CD81 (EGFP) hepatocytes. On the technique in general: In ATP-based viability assays light output follows the ATP content of the culture.
Data set [4] concerns HepG2-A16-CD81 hepatocytes. As to the kind of experiment: HepG2 cytotoxicity screening (CellTiter-Glo). To be noted: for HepG2 cytotoxicity 12pt dose response: Maximum inhibition (%): 12pt dose response.

On to `Cc1csc2ncnc(N3CCC(Cn4cc(C(C)(C)N)nn4)CC3)c12` [UCSD-0838044], for which the IC50 in data set [1] was 11.4 µM; in data set [2], above 25 µM; in data set [3] it was above 25 µM. Also, the Emax in data set [1] amounted to 71.7%; in data set [2] it was 21.9%. Also, in data set [4], the “HepG2 Cytotoxicity primary screen (2uM): % Inhibition” value turned out to be 4.60%. Also, the “HepG2 cytotoxicity 12pt dose response: Maximum inhibition (%)” value in data set [4] is on record as 46.5%.

Turning to `COc1ccc2cc(C3CN(C(=O)N(C)C)CCO3)ccc2c1` (stereo not shown) [UCSD-0838135], in data set [1], the half-inhibitory concentration (IC50) was below 0.000141 µM and the Emax was found to be 82.4%. In data set [2], the Emax worked out at 91.8% and the concentration for half-maximal inhibition (IC50) was found to be 3.45 µM. In data set [3], the half-inhibitory concentration (IC50) is above 25 µM and the inhibition at 2 µM was -0.4%. Also, in data set [4], the “HepG2 cytotoxicity 12pt dose response: Maximum inhibition (%)” value is reported as 6.4%.

With `COCc1noc(-c2ccc(N3CCCCC3CO)nc2)n1` (stereo not shown) [UCSD-0838277], in data set [1], the IC50 is below 0.000141 µM and the Emax turned out to be 82.5%. For the same compound, in data set [2], the Emax is 73.7% and the IC50 amounted to 6.29 µM. In addition, in data set [3], the concentration for half-maximal inhibition (IC50) was above 25 µM and the inhibition at 2 µM was -1.51%. Moreover, in data set [4], the “HepG2 cytotoxicity 12pt dose response: Maximum inhibition (%)” value was 0.196%.

Consider `Nc1nccc(N2CCCC(CO)(CCOc3ccccc3)C2)n1` (stereo not shown) [UCSD-0838947], for which, in data set [1], the IC50 turned out to be 6.46 µM and the Emax was found to be 89.7%. Besides, in data set [2], the Emax is 8.22% and the IC50 is above 25 µM. In data set [3], the IC50 was above 25 µM and the inhibition at 2 µM was -2.96%. Besides, the “HepG2 cytotoxicity 12pt dose response: Maximum inhibition (%)” value in data set [4] is 51.4%.

As to `Nc1nc(CCC(=O)N2CCOC(CC3CCCCC3)C2)cs1` (stereo not shown) [UCSD-0838977], in data set [1], the IC50 was found to be 15 µM and the Emax came out at 93.7%. For the same compound, in data set [2], the Emax was 7.71% and the IC50 was above 25 µM. The same compound displayed an IC50 in data set [3] above 25 µM. Moreover, in data set [4], the “HepG2 Cytotoxicity primary screen (2uM): % Inhibition” value is reported as -10.55% and the “HepG2 cytotoxicity 12pt dose response: Maximum inhibition (%)” value turned out to be 8.43%.

As for `CC(=O)c1ccc(N2CCC(CO)(CCOc3ccccc3)CC2)nc1` [UCSD-0839049], in data set [1], the IC50 was found to be 14.6 µM and the Emax was determined as 105%. Also, in data set [2], the Emax is 13.2% and the IC50 was above 25 µM. Also, the IC50 in data set [3] is above 25 µM. In data set [4], the “HepG2 Cytotoxicity primary screen (2uM): % Inhibition” value is on record as 17.47% and the “HepG2 cytotoxicity 12pt dose response: Maximum inhibition (%)” value is reported as 60.3%.

In the case of `Cc1nc(N2CC[C@@H](NC(=O)c3cnccn3)[C@H](O)C2)c2ccsc2n1` [UCSD-0839060], in data set [1], the IC50 worked out at 10.4 µM and the Emax worked out at 90.6%. For the same compound, in data set [2], the Emax came to 0.656% and the IC50 was above 25 µM. For the same compound, the IC50 in data set [3] is above 25 µM. In data set [4], the “HepG2 Cytotoxicity primary screen (2uM): % Inhibition” value is -14.64% and the “HepG2 cytotoxicity 12pt dose response: Maximum inhibition (%)” value turned out to be 48.7%.

For `c1ccc(-c2ccc(C3CNCCO3)nc2)cc1` (stereo not shown) [UCSD-0839460], in data set [1], the IC50 was below 0.000141 µM and the Emax was found to be 80.4%. In data set [2], the Emax came to 89.9% and the IC50 came out at 0.22 µM. The compound also displayed an IC50 in data set [3] above 25 µM. In data set [4], the “HepG2 Cytotoxicity primary screen (2uM): % Inhibition” value was 6.27% and the “HepG2 cytotoxicity 12pt dose response: Maximum inhibition (%)” value was -1.08%.

In the case of `COc1cccc(-c2noc(C3CCN(Cc4cn(C)nc4C)C3)n2)c1` (stereo not shown) [UCSD-0839537], in data set [1], the IC50 was found to be 9.44 µM and the Emax was found to be 86.1%. Further, in data set [2], the Emax was 60.2% and the IC50 stood at 24 µM. In data set [3], the IC50 is above 25 µM and the inhibition at 2 µM came to 5.3%. The “HepG2 cytotoxicity 12pt dose response: Maximum inhibition (%)” value in data set [4] amounted to 4.79%.

Turning to `COc1cc(CNCc2ccnc(N3CCCCC3)c2)cc(OC)c1` [UCSD-0841255], the IC50 was 11.3 µM in data set [1], above 25 µM in data set [2] and above 25 µM in data set [3]. The Emax in data set [1] came out at 85%; in data set [2], 1.69%. Besides, in data set [4], the “HepG2 Cytotoxicity primary screen (2uM): % Inhibition” value was -2.79%. The “HepG2 cytotoxicity 12pt dose response: Maximum inhibition (%)” value in data set [4] stood at 36.6%.

The IC50 is the midpoint of a concentration-inhibition curve. One may read the inhibition as the relative decrease from the control value, in per cent.

The record behind these values is publication PMC7155171, “Probing the Open Global Health Chemical Diversity Library for Multistage-Active Starting Points for Next-Generation Antimalarials” (ACS Infectious Diseases, 2020).
